Experiments:
Format in all cases: in vivo
[1] = system: Echinochloa oryzacola Vasing.; test: Test Example 1: herbicidal activity, application before weed generation in submerged conditions (symbol A); details: application herbicide amount 320 g/ha
Method in brief: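 Paddy pre-emergence test. Formulated emulsion, water-diluted to a predetermined rate, is applied to floodwater on sowing day; rice transplanted at 2.5 leaves. Effect read at 3 weeks on a 0–5 herbicidal-ratio scale.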

Cyperus difformis = test: Test Example 3: herbicidal effect by foliage application, Wagner pot (symbol E); details: application herbicide amount 320 g/ha; for E herbicidal effect grade: Table 24
Method in brief: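 Plants sown in submerged alluvial soil (water depth 0.1–0.5 cm) in a 25–30 °C greenhouse and grown 14 days. An emulsion of the compound diluted in water to a set herbicide amount was sprayed uniformly on foliage. Effect on each plant scored 3 weeks after application.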

Setaria viridis [2] = test: Test Example 4: herbicidal effect by soil treatment (symbol G); details: for Herbicidal effect grade, G: Setaria viridis: application herbicide amount 320 g/ha; for G: Setaria viridis, herbicidal effect grade: 320 g/ha
Method in brief: (§1)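 Seeds were sown in sterilized diluvial soil, covered with about 1.5 cm of soil, and the soil surface was sprayed with a water-diluted emulsion of the compound at a predetermined rate. Plants grew in a greenhouse at 25° C. to 30° C.; effects were scored visually 3 weeks after application.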

Alopecurus myosuroides [3] = test: Test Example 4: herbicidal effect by soil treatment (symbol J); details: for Herbicidal effect grade, J: Alopecurus myosuroides: application herbicide amount 320 g/ha; for J: Alopecurus myosuroides, herbicidal effect grade: 320 g/ha
Method in brief: as §1

Lolium multiflorum Lam. [4] = test: Test Example 4: herbicidal effect by soil treatment (symbol K); details: for Herbicidal effect grade, K: Lolium multiflorum Lam.: application herbicide amount 320 g/ha; for K: Lolium multiflorum Lam., herbicidal effect grade: 320 g/ha
Method in brief: as §1

Apera spica-venti = test: Test Example 4: herbicidal effect by soil treatment (symbol L); details: for Herbicidal effect grade, L: Apera spica-venti: application herbicide amount 320 g/ha; for L: Apera spica-venti, herbicidal effect grade: 320 g/ha
Method in brief: as §1

Veronica persica [5] = test: Test Example 4: herbicidal effect by soil treatment (symbol R); details: for Herbicidal effect grade, R: Veronica persica: application herbicide amount 320 g/ha; for R: Veronica persica, herbicidal effect grade: 320 g/ha
Method in brief: as §1

corn = test: Test Example 4: effect on crop by soil treatment (symbol c); details: for Effect on crop grade, c: corn: application herbicide amount 320 g/ha; for c: corn, effect grade on crop: 320 g/ha
Method in brief: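 The test used sterilized diluvial soil. Seed was set down in spots and overlaid with about 1.5 cm of soil before growth in a greenhouse kept at 25° C. to 30° C.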

soybean [6] = test: Test Example 4: effect on crop by soil treatment (symbol d); details: for Effect on crop grade, d: soybean: application herbicide amount 320 g/ha; for d: soybean, effect grade on crop: 320 g/ha
Method in brief: (§2)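 Steps: fill box with sterilized diluvial soil; sow seed spot-like; cover with ~1.5 cm soil; grow in greenhouse (25° C. to 30° C.).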

rice = test: Test Example 4: effect on crop by soil treatment (symbol b); details: for Effect on crop grade, b: directly sowed rice plant: application herbicide amount 320 g/ha; for b: directly sowed rice plant, effect grade on crop: 320 g/ha
Method in brief: as §2

wheat = test: Test Example 4: effect on crop by soil treatment (symbol e); details: for Effect on crop grade, e: wheat: application herbicide amount 320 g/ha; for e: wheat, effect grade on crop: 320 g/ha
Method in brief: as §2

Setaria viridis [7] = test: Test Example 5: herbicidal effect by foliage application, plastic box (symbol G); details: 320 g/ha, 3 weeks after application
Method in brief: (§3)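 Sowing in sterilized diluvial soil, 14 days' greenhouse growth at 25° C. to 30° C., then uniform small-sprayer foliar application of aqueous emulsion dilution; plants scored three weeks afterwards.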

Avena fatua = test: Test Example 5: herbicidal effect by foliage application, plastic box (symbol I); details: 320 g/ha, 3 weeks after application
Method in brief: as §3

Alopecurus myosuroides [8] = test: Test Example 5: herbicidal effect by foliage application, plastic box (symbol J); details: 320 g/ha, 3 weeks after application
Method in brief: as §3

Lolium multiflorum Lam. [9] = test: Test Example 5: herbicidal effect by foliage application, plastic box (symbol K); details: 320 g/ha, 3 weeks after application
Method in brief: as §3

Amaranthus retroflexus = test: Test Example 5: herbicidal effect by foliage application, plastic box (symbol N); details: 320 g/ha, 3 weeks after application
Method in brief: as §3

Veronica persica [10] = test: Test Example 5: herbicidal effect by foliage application, plastic box (symbol R); details: 320 g/ha, 3 weeks after application
Method in brief: as §3

soybean [11] = test: Test Example 5: effect on crop by foliage application, plastic box (symbol d); details: 320 g/ha, 3 weeks after application
Method in brief: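 Crop and weed seeds sown in spots in sterilized diluvial soil in plastic boxes and covered with about 1.5 cm soil. Plants raised in a greenhouse at 25° C. to 30° C. for foliar application.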

| Structure (SMILES) | A (Echinochloa oryzacola Vasing.) herbicidal effect grade [1] | E herbicidal effect grade (Cyperus difformis) | Herbicidal effect grade, G: Setaria viridis (Setaria viridis [2]) | Herbicidal effect grade, J: Alopecurus myosuroides (Alopecurus myosuroides [3]) | Herbicidal effect grade, K: Lolium multiflorum Lam. (Lolium multiflorum Lam. [4]) | Herbicidal effect grade, L: Apera spica-venti (Apera spica-venti) | Herbicidal effect grade, R: Veronica persica (Veronica persica [5]) | Effect on crop grade, c: corn (corn) | Effect on crop grade, d: soybean (soybean [6]) | Effect on crop grade, b: directly sowed rice plant (rice) | Effect on crop grade, e: wheat (wheat) | G: Setaria viridis, herbicidal effect grade (Setaria viridis [7]) | I: Avena fatua, herbicidal effect grade (Avena fatua) | J: Alopecurus myosuroides, herbicidal effect grade (Alopecurus myosuroides [8]) | K: Lolium multiflorum Lam., herbicidal effect grade (Lolium multiflorum Lam. [9]) | N: Amaranthus retroflexus, herbicidal effect grade (Amaranthus retroflexus) | R: Veronica persica, herbicidal effect grade (Veronica persica [10]) | d: soybean, effect on crop grade (soybean [11]) | Herbicidal effect grade, A: Echinochloa oryzacola Vasing. [1] | herbicidal effect on E, grade 0-5 (Cyperus difformis) | other results |
| --- | --- | --- | --- | --- | --- | --- | --- | --- | --- | --- | --- | --- | --- | --- | --- | --- | --- | --- | --- | --- | --- |
| Cc1cc(Br)cc(C)c1C1=C(O)CC(CC(=O)C2CC2)C1=O (racemic) [10-004] | 5 (Herbicidal ratio of 90% or more (almost completely withered)) | 5 (Herbicidal ratio of 90% or more (almost completely withered)) | 5 (Herbicidal ratio of 90% or more (almost completely withered)) | 5 (Herbicidal ratio of 90% or more (almost completely withered)) | 5 (Herbicidal ratio of 90% or more (almost completely withered)) | 5 (Herbicidal ratio of 90% or more (almost completely withered)) | 0 (Herbicidal ratio of 5% or lower (almost no effect)) | 5 (Herbicidal ratio of 90% or more (almost completely withered)) | 0 (Herbicidal ratio of 5% or lower (almost no effect)) | 5 (Herbicidal ratio of 90% or more (almost completely withered)) | 0 (Herbicidal ratio of 5% or lower (almost no effect)) | 5 (Herbicidal ratio of 90% or more (almost completely withered)) | 5 (Herbicidal ratio of 90% or more (almost completely withered)) | 5 (Herbicidal ratio of 90% or more (almost completely withered)) | 5 (Herbicidal ratio of 90% or more (almost completely withered)) | 0 (Herbicidal ratio of 5% or lower (almost no effect)) | 3 (Herbicidal ratio of 40% or higher and lower than 70%) | 0 (Herbicidal ratio of 5% or lower (almost no effect)) | – | – | – |
| COC(=O)C(C(=O)C1CC1)C1CC(O)=C(c2c(C)cc(Br)cc2C)C1=O (mixture of isomers) [10-002] | 1 (Herbicidal ratio of 5% or higher and lower than 20%) | 3 (Herbicidal ratio of 40% or higher and lower than 70%) | 4 (Herbicidal ratio of 70% or higher and lower than 90%) | 0 (Herbicidal ratio of 5% or lower (almost no effect)) | 4 (Herbicidal ratio of 70% or higher and lower than 90%) | 3 (Herbicidal ratio of 40% or higher and lower than 70%) | 0 (Herbicidal ratio of 5% or lower (almost no effect)) | 0 (Herbicidal ratio of 5% or lower (almost no effect)) | 0 (Herbicidal ratio of 5% or lower (almost no effect)) | 4 (Herbicidal ratio of 70% or higher and lower than 90%) | 0 (Herbicidal ratio of 5% or lower (almost no effect)) | 5 (Herbicidal ratio of 90% or more (almost completely withered)) | 5 (Herbicidal ratio of 90% or more (almost completely withered)) | 4 (Herbicidal ratio of 70% or higher and lower than 90%) | 5 (Herbicidal ratio of 90% or more (almost completely withered)) | 0 (Herbicidal ratio of 5% or lower (almost no effect)) | 0 (Herbicidal ratio of 5% or lower (almost no effect)) | 0 (Herbicidal ratio of 5% or lower (almost no effect)) | – | – | – |
| Cc1cc(C)c(C2=C(O)CC(CC(=NOCC(F)(F)F)C3CC3)C2=O)c(C)c1 (stereo not drawn) [1-131] | – | – | – | – | – | – | – | – | – | – | – | – | – | – | – | – | – | – | 5 (Herbicidal ratio of 90% or more (almost completely withered)) | 5 (Herbicidal ratio of 90% or more (almost completely withered)) | G: Setaria viridis, herbicidal effect grade (Setaria viridis [2]): 5 (Herbicidal ratio of 90% or more (almost completely withered)); J: Alopecurus myosuroides, herbicidal effect grade (Alopecurus myosuroides [3]): 5 (Herbicidal ratio of 90% or more (almost completely withered)); K: Lolium multiflorum Lam., herbicidal effect grade (Lolium multiflorum Lam. [4]): 5 (Herbicidal ratio of 90% or more (almost completely withered)); L: Apera spica-venti, herbicidal effect grade (Apera spica-venti): 5 (Herbicidal ratio of 90% or more (almost completely withered)); R: Veronica persica, herbicidal effect grade (Veronica persica [5]): 3 (Herbicidal ratio of 40% or higher and lower than 70%); c: corn, effect grade on crop (corn): 0 (Herbicidal ratio of 5% or lower (almost no effect)); d: soybean, effect grade on crop (soybean [6]): 0 (Herbicidal ratio of 5% or lower (almost no effect)); b: directly sowed rice plant, effect grade on crop (rice): 5 (Herbicidal ratio of 90% or more (almost completely withered)); e: wheat, effect grade on crop (wheat): 0 (Herbicidal ratio of 5% or lower (almost no effect)); G: Setaria viridis, herbicidal effect (criteria 0-5) (Setaria viridis [7]): 5 (Herbicidal ratio of 90% or more (almost completely withered)); I: Avena fatua, herbicidal effect (criteria 0-5) (Avena fatua): 4 (Herbicidal ratio of 70% or higher and lower than 90%); J: Alopecurus myosuroides, herbicidal effect (criteria 0-5) (Alopecurus myosuroides [8]): 5 (Herbicidal ratio of 90% or more (almost completely withered)); K: Lolium multiflorum Lam., herbicidal effect (criteria 0-5) (Lolium multiflorum Lam. [9]): 5 (Herbicidal ratio of 90% or more (almost completely withered)); N: Amaranthus retroflexus, herbicidal effect (criteria 0-5) (Amaranthus retroflexus): 0 (Herbicidal ratio of 5% or lower (almost no effect)); R: Veronica persica, herbicidal effect (criteria 0-5) (Veronica persica [10]): 4 (Herbicidal ratio of 70% or higher and lower than 90%); d: soybean, effect on crop (criteria 0-5) (soybean [11]): 0 (Herbicidal ratio of 5% or lower (almost no effect)) |
| CON=C(C)CC1CC(OC(=O)C#C[Si](C)(C)C)=C(c2c(C)cc(C)cc2C)C1=O (stereo not drawn) [1-096] | – | – | – | – | – | – | – | – | – | – | – | – | – | – | – | – | – | – | 5 (Herbicidal ratio of 90% or more (almost completely withered)) | 5 (Herbicidal ratio of 90% or more (almost completely withered)) | G: Setaria viridis, herbicidal effect grade (Setaria viridis [2]): 5 (Herbicidal ratio of 90% or more (almost completely withered)); J: Alopecurus myosuroides, herbicidal effect grade (Alopecurus myosuroides [3]): 5 (Herbicidal ratio of 90% or more (almost completely withered)); K: Lolium multiflorum Lam., herbicidal effect grade (Lolium multiflorum Lam. [4]): 5 (Herbicidal ratio of 90% or more (almost completely withered)); L: Apera spica-venti, herbicidal effect grade (Apera spica-venti): 5 (Herbicidal ratio of 90% or more (almost completely withered)); R: Veronica persica, herbicidal effect grade (Veronica persica [5]): 0 (Herbicidal ratio of 5% or lower (almost no effect)); c: corn, effect grade on crop (corn): 4 (Herbicidal ratio of 70% or higher and lower than 90%); d: soybean, effect grade on crop (soybean [6]): 1 (Herbicidal ratio of 5% or higher and lower than 20%); b: directly sowed rice plant, effect grade on crop (rice): 5 (Herbicidal ratio of 90% or more (almost completely withered)); e: wheat, effect grade on crop (wheat): 3 (Herbicidal ratio of 40% or higher and lower than 70%); G: Setaria viridis, herbicidal effect (criteria 0-5) (Setaria viridis [7]): 5 (Herbicidal ratio of 90% or more (almost completely withered)); I: Avena fatua, herbicidal effect (criteria 0-5) (Avena fatua): 5 (Herbicidal ratio of 90% or more (almost completely withered)); J: Alopecurus myosuroides, herbicidal effect (criteria 0-5) (Alopecurus myosuroides [8]): 5 (Herbicidal ratio of 90% or more (almost completely withered)); K: Lolium multiflorum Lam., herbicidal effect (criteria 0-5) (Lolium multiflorum Lam. [9]): 5 (Herbicidal ratio of 90% or more (almost completely withered)); N: Amaranthus retroflexus, herbicidal effect (criteria 0-5) (Amaranthus retroflexus): 2 (Herbicidal ratio of 20% or higher and lower than 40%); R: Veronica persica, herbicidal effect (criteria 0-5) (Veronica persica [10]): 3 (Herbicidal ratio of 40% or higher and lower than 70%); d: soybean, effect on crop (criteria 0-5) (soybean [11]): 3 (Herbicidal ratio of 40% or higher and lower than 70%) |
